Experiments:
[1] = molecular target: T1, Tll0007-PilZ (FRET biosensor mCyPet-Tll0007 PilZ-mYPet) (Thermostichus vulcanus, UniProt E5RST0); experiment: FRET biosensor titration (F527/F475); assay type: binding; conditions: 31 °C, pH 7.5, 100 mM NaCl, 10% glycerol, 50 nM protein; PilZ domain
T1 construct: gene Tvtll0007; N-terminal His tag, pET28V, E. coli expressed

[2] = molecular target: T2, full-length YcgR of Escherichia coli (Escherichia coli, UniProt P76010); experiment: FRET biosensor titration (F527/F475); assay type: binding; conditions: read-out: affinity
T2 construct: full length between mCyPet and mYPet (FRET reporters); N-terminal His tag, pET28V, E. coli expressed
T2 sequence (P76010 1-244): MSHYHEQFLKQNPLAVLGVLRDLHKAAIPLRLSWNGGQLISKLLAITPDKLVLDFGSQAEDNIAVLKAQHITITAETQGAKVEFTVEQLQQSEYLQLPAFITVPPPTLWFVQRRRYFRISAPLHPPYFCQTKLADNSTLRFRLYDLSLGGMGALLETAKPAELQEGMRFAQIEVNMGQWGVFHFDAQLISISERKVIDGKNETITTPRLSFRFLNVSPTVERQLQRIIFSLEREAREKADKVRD

SesA = molecular target: T3, SesA; experiment: EnzChek pyrophosphate assay, initial rate of diguanylate cyclase; assay type: biochemical; conditions: 31 °C, pH 7.5, 20 mM MgCl2, 100 µM GTP, 0.2 µM protein, blue-light pre-irradiated; allosteric product inhibition at I-site (RXXD)
T3 construct: PCC 6803 from pTCH2031V; pre-irradiated with blue light

[3] = molecular target: T4, Tll0007-PilZ (FRET biosensor mCyPet-Tll0007 PilZ-mYPet) (Thermostichus vulcanus, UniProt E5RST0, R605A); experiment: FRET biosensor titration (F527/F475); assay type: binding; conditions: 31 °C, pH 7.5, 100 mM NaCl, 10% glycerol, 50 nM protein; c-di-GMP 10 nM to 1 mM; PilZ RXXXR motif mutant
T4 construct: gene Tvtll0007; N-terminal His tag, pET28V, E. coli expressed
T4 sequence (E5RST0 entry or part of it R605A): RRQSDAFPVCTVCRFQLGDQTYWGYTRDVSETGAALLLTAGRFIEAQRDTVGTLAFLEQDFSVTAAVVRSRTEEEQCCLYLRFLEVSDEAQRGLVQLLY

T1 sequence (E5RST0 entry or part of it): as the sequence (E5RST0 entry or part of it R605A) above, with A6R counted along it

Nc1nc2c(ncn2[C@@H]2O[C@@H]3CO[P@](=O)(O)O[C@H]4[C@@H](O)[C@H](n5cnc6c(=O)[nH]c(N)nc65)O[C@@H]4CO[P@](=O)(O)O[C@H]3[C@H]2O)c(=O)[nH]1 [c-di-GMP, bis-(3′-5′)-cyclic diguanylic acid]
Kd [1]: 63.9 ± 5.1 µM
Kd [2]: 0.42 ± 0.08 µM
IC50 (SesA): 1.07 ± 0.13 µM
no FRET increase (no binding detected) [3]: R605A lacked the corresponding increase in FRET efficiency upon c-di-GMP addition

Source: paper PMC5871770, “Tlr1612 is the major repressor of cell aggregation in the light-color-dependent c-di-GMP signaling network of Thermosynechococcus vulcanus” (Scientific Reports, 2018)
